Target: recombinant human His-ATG7 enzyme (Homo sapiens (Human), UniProt O95352)
Experiment: ATG7 Enzyme Assay (HTRF/FRET, ATG3-GST and Flag-Gabarap)
Format: biochemical
Conditions: for inhibition at 0.111 µM: Concentration 0.111 μM; for inhibition at 0.123 µM: Concentration 0.123 μM
Outline: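 0.15 nM His-ATG7 was reacted with 5 nM ATG3-GST, 5 nM Flag-Gabarap and 10 μM ATP in HEPES pH 7.5 containing MgCl2, GSH and TCEP for 105 min at 24° C, then stopped with EDTA/KF. Eu-anti-Flag and anti-GST-APC HTRF was read after 2 h. Results are given as single-concentration % inhibition or IC50.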

recombinant human His-ATG7 enzyme, sequence (O95352 whole entry): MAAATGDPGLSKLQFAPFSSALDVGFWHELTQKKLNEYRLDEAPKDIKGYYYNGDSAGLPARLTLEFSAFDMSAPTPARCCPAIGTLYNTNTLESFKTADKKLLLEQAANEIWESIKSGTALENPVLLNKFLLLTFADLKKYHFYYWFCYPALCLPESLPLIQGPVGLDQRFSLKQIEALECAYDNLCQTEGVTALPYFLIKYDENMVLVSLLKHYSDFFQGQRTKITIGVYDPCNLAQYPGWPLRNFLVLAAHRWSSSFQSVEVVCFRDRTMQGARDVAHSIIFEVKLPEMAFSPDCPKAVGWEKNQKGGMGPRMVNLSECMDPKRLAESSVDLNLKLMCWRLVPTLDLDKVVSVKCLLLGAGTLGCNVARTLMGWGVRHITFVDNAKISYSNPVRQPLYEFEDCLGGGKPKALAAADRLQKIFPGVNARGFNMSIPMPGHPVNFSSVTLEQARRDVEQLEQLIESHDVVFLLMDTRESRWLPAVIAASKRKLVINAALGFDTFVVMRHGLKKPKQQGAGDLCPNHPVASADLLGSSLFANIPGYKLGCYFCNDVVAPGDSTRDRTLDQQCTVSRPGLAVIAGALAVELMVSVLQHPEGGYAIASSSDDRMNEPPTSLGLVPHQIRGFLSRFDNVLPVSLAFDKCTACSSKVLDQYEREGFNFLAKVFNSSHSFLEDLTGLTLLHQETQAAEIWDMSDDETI

SMILES	IC50	inhibition at 0.111 µM (read-out: Percent Inhibition)	inhibition at 0.123 µM (read-out: Percent Inhibition)	inhibition at 0.069 µM (Concentration 0.069 μM, read-out: Percent Inhibition)
CC(C)Oc1ccc(Sc2nn([C@H]3C[C@H](O)[C@@H](COS(N)(=O)=O)O3)c3ncnc(N)c23)cc1 [Compound I-184, [(2R,3S,5R)-5-{4-amino-3-[(4-isopropoxyphenyl)sulfanyl]-1H-pyrazolo[3,4-d]pyrimidin-1-yl}-3-hydroxytetrahydrofuran-2-yl]methyl sulfamate]	50 to 100 nM	64%		
COc1cccc(Sc2nn([C@H]3C[C@H](O)[C@@H](COS(N)(=O)=O)O3)c3ncnc(N)c23)c1 [Compound I-199, [(2R,3S,5R)-5-{4-amino-3-[(3-methoxyphenyl)sulfanyl]-1H-pyrazolo[3,4-d]pyrimidin-1-yl}-3-hydroxytetrahydrofuran-2-yl]methyl sulfamate]	20 to 50 nM	74%		
Nc1ncnc2c1c(Sc1cccc3ccccc13)nn2[C@@H]1O[C@H](COS(N)(=O)=O)[C@@H](O)[C@H]1O [Compound I-84, {(2R,3S,4R,5R)-5-[4-amino-3-(1-naphthylsulfanyl)-1H-pyrazolo[3,4-d]pyrimidin-1-yl]-3,4-dihydroxytetrahydrofuran-2-yl}methyl sulfamate]	50 to 100 nM		62%	
Nc1ncnc2c1c(SCc1ccccc1)nn2[C@H]1C[C@H](O)[C@H](COS(N)(=O)=O)O1 [Compound I-221, {(2S,3S,5R)-5-[4-amino-3-(benzylsulfanyl)-1H-pyrazolo[3,4-d]pyrimidin-1-yl]-3-hydroxytetrahydrofuran-2-yl}methyl Sulfamate]	100 to 500 nM	26%		
Nc1ncnc2c1c(Sc1ccc(F)cc1)nn2[C@@H]1O[C@H](COS(N)(=O)=O)[C@@H](O)[C@@H]1F [Compound I-126, [(2R,3R,4S,5R)-5-{4-amino-3-[(4-fluorophenyl)sulfanyl]-1H-pyrazolo[3,4-d]pyrimidin-1-yl}-4-fluoro-3-hydroxytetrahydrofuran-2-yl]methyl sulfamate]	20 to 50 nM	71%		
Cc1ccc(Sc2nn([C@@H]3O[C@H](COS(N)(=O)=O)[C@@H](O)[C@@H]3F)c3ncnc(N)c23)nc1 [Compound I-152, [(2R,3R,4S,5R)-5-{4-amino-3-[(5-methylpyridin-2-yl)sulfanyl]-1H-pyrazolo[3,4-d]pyrimidin-1-yl}-4-fluoro-3-hydroxytetrahydrofuran-2-yl]methyl sulfamate]	< 20 nM	88%		
CSc1nn([C@@H]2O[C@@H](COS(N)(=O)=O)[C@@H](O)[C@H]2O)c2ncnc(N)c12 [Compound I-94, {(2S,3S,4R,5R)-5-[4-amino-3-(methylsulfanyl)-1H-pyrazolo[3,4-d]pyrimidin-1-yl]-3,4-dihydroxytetrahydrofuran-2-yl}methyl Sulfamate]	100 to 500 nM	28%		
Nc1ncnc2c1c(C1CC1)nn2[C@@H]1O[C@H](COS(N)(=O)=O)[C@@H](O)[C@H]1O [Compound I-26, [(2R,3S,4R,5R)-5-(4-amino-3-cyclopropyl-1H-pyrazolo[3,4-d]pyrimidin-1-yl)-3,4-dihydroxytetrahydrofuran-2-yl]methyl Sulfamate]	50 to 100 nM		53%	
Nc1ncnc2c1c(C(F)F)nn2[C@H]1C[C@H](O)[C@H](COS(N)(=O)=O)O1 [Compound I-217, {(2S,3S,5R)-5-[4-amino-3-(difluoromethyl)-1H-pyrazolo[3,4-d]pyrimidin-1-yl]-3-hydroxytetrahydrofuran-2-yl}methyl Sulfamate]	100 to 500 nM	34%		
Nc1ncnc2c1c(Sc1cccc(Cl)c1)nn2[C@H]1C[C@H](O)[C@H](COS(N)(=O)=O)O1 [Compound I-224, [(2S,3S,5R)-5-{4-amino-3-[(3-chlorophenyl)sulfanyl]-1H-pyrazolo[3,4-d]pyrimidin-1-yl}-3-hydroxytetrahydrofuran-2-yl]methyl sulfamate]	100 to 500 nM	39%		
CC(C)Sc1nn([C@H]2C[C@H](O)[C@@H](COS(N)(=O)=O)O2)c2ncnc(N)c12 [Compound I-181, {(2R,3S,5R)-5-[4-amino-3-(isopropylsulfanyl)-1H-pyrazolo[3,4-d]pyrimidin-1-yl]-3-hydroxytetrahydrofuran-2-yl}methyl Sulfamate]	20 to 50 nM		81%	
Nc1ncnc2c1c(Sc1cccc(Cl)c1)nn2[C@@H]1O[C@H](COS(N)(=O)=O)[C@@H](O)[C@@H]1F [Compound I-106, [(2R,3R,4S,5R)-5-{4-amino-3-[(3-chlorophenyl)sulfanyl]-1H-pyrazolo[3,4-d]pyrimidin-1-yl}-4-fluoro-3-hydroxytetrahydrofuran-2-yl]methyl Sulfamate]	20 to 50 nM		78%	
CCC(C)Sc1nn([C@@H]2O[C@H](COS(N)(=O)=O)[C@@H](O)[C@@H]2F)c2ncnc(N)c12 (single isomer, unassigned) [Compound I-136b]	50 to 100 nM	61%		
Nc1ncnc2c1c(SCc1ccccc1)nn2[C@@H]1O[C@H](COS(N)(=O)=O)[C@@H](O)[C@H]1O [Compound I-52, {(2R,3S,4R,5R)-5-[4-amino-3-(benzylsulfanyl)-1H-pyrazolo[3,4-d]pyrimidin-1-yl]-3,4-dihydroxytetrahydrofuran-2-yl}methyl sulfamate]	20 to 50 nM		83%	
Nc1ncnc2c1c(SCc1cccc3ccccc13)nn2[C@@H]1O[C@H](COS(N)(=O)=O)[C@@H](O)[C@H]1O [Compound I-67, [(2R,3S,4R,5R)-5-{4-amino-3-[(1-naphthylmethyl)sulfanyl]-1H-pyrazolo[3,4-d]pyrimidin-1-yl}-3,4-dihydroxytetrahydrofuran-2-yl]methyl sulfamate]	50 to 100 nM		64%	
N#Cc1ccnc(Sc2nn([C@@H]3O[C@H](COS(N)(=O)=O)[C@@H](O)[C@@H]3F)c3ncnc(N)c23)c1 [Compound I-130, [(2R,3R,4S,5R)-5-{4-amino-3-[(4-cyanopyridin-2-yl)sulfanyl]-1H-pyrazolo[3,4-d]pyrimidin-1-yl}-4-fluoro-3-hydroxytetrahydrofuran-2-yl]methyl sulfamate]	20 to 50 nM	77%		
CC(C)[C@@H](C)Sc1nn([C@@H]2O[C@H](COS(N)(=O)=O)[C@@H](O)[C@@H]2F)c2ncnc(N)c12 [Compound I-129, [(2R,3R,4S,5R)-5-(4-amino-3-{[(2R)-3-methylbutan-2-yl]sulfanyl}-1H-pyrazolo[3,4-d]pyrimidin-1-yl)-4-fluoro-3-hydroxytetrahydrofuran-2-yl]methyl sulfamate]	100 to 500 nM	48%		
Nc1ncnc2c1c(Sc1cccc(F)c1)nn2[C@@H]1O[C@H](COS(N)(=O)=O)[C@@H](O)[C@@H]1F [Compound I-116, [(2R,3R,4S,5R)-5-{4-amino-3-[(3-fluorophenyl)sulfanyl]-1H-pyrazolo[3,4-d]pyrimidin-1-yl}-4-fluoro-3-hydroxytetrahydrofuran-2-yl]methyl sulfamate]	20 to 50 nM	75%		
N#Cc1nn([C@@H]2O[C@H](COS(N)(=O)=O)[C@@H](O)[C@H]2O)c2ncnc(N)c12 [Compound I-13, [(2R,3S,4R,5R)-5-(4-amino-3-cyano-1H-pyrazolo[3,4-d]pyrimidin-1-yl)-3,4-dihydroxytetrahydrofuran-2-yl]methyl Sulfamate]	20 to 50 nM		80%	
Nc1ncnc2c1c(SCc1ccc(C(F)(F)F)cc1)nn2[C@@H]1O[C@H](COS(N)(=O)=O)[C@@H](O)[C@H]1O [Compound I-33, [(2R,3S,4R,5R)-5-(4-amino-3-{[4-(trifluoromethyl)benzyl]sulfanyl}-1H-pyrazolo[3,4-d]pyrimidin-1-yl)-3,4-dihydroxytetrahydrofuran-2-yl]methyl sulfamate]	20 to 50 nM		82%	
C#Cc1nn([C@@H]2O[C@H](COS(N)(=O)=O)[C@@H](O)[C@H]2O)c2ncnc(N)c12 [Compound I-9, [(2R,3S,4R,5R)-5-(4-amino-3-ethynyl-1H-pyrazolo[3,4-d]pyrimidin-1-yl)-3,4-dihydroxytetrahydrofuran-2-yl]methyl Sulfamate]	50 to 100 nM			52%
Nc1ncnc2c1c(SC1CCCC1O)nn2[C@@H]1O[C@H](COS(N)(=O)=O)[C@@H](O)[C@H]1O (mixture of isomers) [Compound I-54, [(2R,3S,4R,5R)-5-(4-amino-3-{[(1R,2R)-2-hydroxycyclopentyl]sulfanyl}-1H-pyrazolo[3,4-d]pyrimidin-1-yl)-3,4-dihydroxytetrahydrofuran-2-yl]methyl Sulfamate and [(2R,3S,4R,5R)-5-(4-amino-3-{[(1S,2S)-2-hydroxycyclopentyl]sulfanyl}-1H-pyrazolo[3,4-d]pyrimidin-1-yl)-3,4-dihydroxytetrahydrofuran-2-yl]methyl Sulfamate]	20 to 50 nM		75%	
Nc1ncnc2c1c(Sc1ccc(F)cc1)nn2[C@H]1C[C@H](O)[C@@H](COS(N)(=O)=O)O1 [Compound I-187, [(2R,3S,5R)-5-{4-amino-3-[(4-fluorophenyl)sulfanyl]-1H-pyrazolo[3,4-d]pyrimidin-1-yl}-3-hydroxytetrahydrofuran-2-yl]methyl sulfamate]	50 to 100 nM	56%		
CC(Sc1nn([C@@H]2O[C@H](COS(N)(=O)=O)[C@@H](O)[C@H]2O)c2ncnc(N)c12)c1ccccc1 (mixture of isomers) [Compound I-70, [(2R,3S,4R,5R)-5-(4-amino-3-{[(1R)-1-phenylethyl]sulfanyl}-1H-pyrazolo[3,4-d]pyrimidin-1-yl)-3,4-dihydroxytetrahydrofuran-2-yl]methyl sulfamate and [(2R,3S,4R,5R)-5-(4-amino-3-{[(1S)-1-phenylethyl]sulfanyl}-1H-pyrazolo[3,4-d]pyrimidin-1-yl)-3,4-dihydroxytetrahydrofuran-2-yl]methyl sulfamate]	50 to 100 nM		70%	
